Converted amounts (≈) assume the structure as drawn. Like-named read-outs stand apart in the source and are kept apart here.
Key:
[1] = system: E. faecium Van A; test: Minimal inhibitory concentration (MIC), double-dilution in broth, OD600; type: cell-based, Enterococcus faecium; details: unit assumed
Method: (§1) In short, a stock solution of 5 mg/mL of HKIs in DMSO was made. This stock was diluted to 50 µg/mL in broth in a 96 well plate. Dilutions were made (factor 2) directly in the plate with a multi-channel pipet. Bacteria cultured in suspension overnight were then added to the plate (except negative control) and the plate was incubated for 24 hours. After 24 hours the OD600 was measured using a spectrophotometer. A positive control (with bacteria, without HKI) was also measured on each plate. The MICs were not determined in duplo/triplicate in the same experiment, however, the MICs of several HKIs were measured in different experiments and no major differences (max. 1x dilution) were found in the MICs between the experiments.
(§2) Bacterial strains used in this study for antibacterial susceptibility testing (Table S2) were propagated using standard microbiological procedures. Minimal inhibitory concentrations (MICs) were determined following a standard double-dilution method (42), 73. MICs were recorded as the lowest concentration of the compound where no visible growth was observed. After plating the dilutions around the MIC or growing them in fresh MH media, minimal bactericidal concentration (MBC) was recorded as the lowest concentration of the compound at which no colonies were formed or no growth was observed, respectively. For M. marinum, MICs were determined in Middlebrook 7H9 broth (Difco) and MICs were determined after 3 days incubation at 30 °C.
(§3) Grow the bacterial colonies to be tested from single colonies on an agar plate in LB broth or suitable bacterial growth medium overnight at 37°C. Prepare a 5 mg/mL stock solution of compounds to be tested in DMSO. One 96-well plate per bacterial strain was prepared. First, put 50 uL of medium to each well. Add 48 µL of medium to all wells in row A. Pipet 2 µL of antimicrobial master stock into the top well (row A). Beware, the antimicrobial concentration will be diluted 2x after adding the bacterial culture. Total volume in each well will be 100 µL. In A11, pipet 2 µL of DMSO. Make a serial dilution from row A to row H, pipetting 50 µL from the previous row into the new one. Mix well by pipetting up and down. Discard the last 50 µL so that there is 50 µl in each well In a clean, new plastic pipetting cup, dilute the overnight bacterial culture 100 times. Add 100 µL of bacterial overnight culture to 9900 µL of medium. Mix the suspension well. Once the serial dilutions are complete for all antimicrobial compounds, add 50 µL of diluted overnight bacterial culture to each well (except column 12). Mix by pipetting or put the plate on the shaker. Per 2 plates, close with parafilm around the edges and place in the incubator overnight. After overnight culturing, measure bacterial growth on the SpectraMax. The lowest concentration where no growth is observed is the MIC. To determine the MIB pipette 5 µL from each well of the 96 well plate where now growth was observed on to an LB agar plate, without antimicrobial. Put the plates in the incubator to grow overnight. The minimal concentration where no growth can be seen on the agar plate is the MBC.

[2] = system: S. suis; test: as above; type: cell-based, Streptococcus suis; details: unit assumed
Method: as §1, §2, §3

[3] = system: M. marinum; test: Minimal inhibitory concentration (MIC), Middlebrook 7H9 broth, 3 days at 30 °C; type: cell-based, Mycobacterium marinum; details: unit assumed
Method: as §1, §2, §3

[4] = system: HEK293; test: Cell toxicity, Alamar blue assay, 24 hours exposure; type: cell-based; details: Homo sapiens
Method: (§4) Toxicity was primarily determined by measuring cytotoxicity with the Alamar blue assay. In short, cells (HEK293, NRK-52E and Caco-2) were plated in 96-well plates and cultured overnight. HKI compounds were diluted to concentrations ranging from 0.39 to 500 µg/mL in serum-free medium and added to the cells.
(§5) After exposure, cells were incubated for 24 hours. Experiments were mostly performed by single measurement. […] After 24 hours HKIs were removed from the cells and Alamar blue was added, incubated for 45 minutes and fluorescence was measured on a spectrophotometer. Alamar blue measures the conversion of blue, low fluorescent resazurin into high fluorescent pink resorufin. This conversion can only be made in viable mitochondria in viable cells and therefore this dye provides a measure for cytotoxicity.

[5] = system: NRK-52E; test: as above; type: cell-based; details: Rattus norvegicus
Method: as §4, §5

[6] = system: S. aureus Newman; test: Minimal inhibitory concentration (MIC), double-dilution in broth, OD600; type: cell-based, Staphylococcus aureus Newman; details: unit assumed
Method: In short, a stock solution of 5 mg/mL of HKIs in DMSO was made. This stock was diluted to 50 µg/mL in broth in a 96 well plate. Dilutions were made (factor 2) directly in the plate with a multi-channel pipet. Bacteria cultured in suspension overnight were then added to the plate (except negative control) and the plate was incubated for 24 hours. After 24 hours the OD600 was measured using a spectrophotometer. A positive control (with bacteria, without HKI) was also measured on each plate.
Bacterial strains used in this study for antibacterial susceptibility testing (Table S2) were propagated using standard microbiological procedures. Minimal inhibitory concentrations (MICs) were determined following a standard double-dilution method (42), 73. […] For M. marinum, MICs were determined in Middlebrook 7H9 broth (Difco) and MICs were determined after 3 days incubation at 30 °C.
as §3

[7] = system: P. multocida; test: as above; type: cell-based, Pasteurella multocida; details: unit assumed
Method: as §1, §2, §3

[8] = system: E. coli JW5503; type: cell-based, Escherichia coli; details: unit assumed
Method: as §1, §2, §3

[9] = HEK293, read-out: IC50 HEK293 (5 mg/mL stock)
[10] = HEK293, read-out: IC50 HEK293 (50 mg/mL stock)
[11] = read-out: IC50 NRK-52E (50 mg/mL stock)

SMILES | MIC E. faecium Van A [1] [µg/mL] | MIC S. suis [2] [µg/mL] | MIC M. marinum [3] [µg/mL] | IC50 [4, 9] [µg/mL] | IC50 [4, 10] [µg/mL] | IC50 [5, 11] [µg/mL] | MIC S. aureus Newman [6] [µg/mL] | MIC P. multocida [7] [µg/mL] | MIC E. coli JW5503 [8] [µg/mL] | IC50 ([4]; read-out: IC50 HEK293 (50 mg/mL stock), HEK293, 50 mg/mL stock) [µg/mL] | IC50 ([5]; read-out: IC50 NRK-52E (50 mg/mL stock), 50 mg/mL stock) [µg/mL]
Oc1ccc(-c2onc(C(F)(F)F)c2-c2ccc(Cl)cc2)c(O)c1 [AND-2, 4-[4-(4-chlorophenyl)-3-(trifluoromethyl)isoxazol-5-yl]resorcinol] | 6.25 (≈ 17.6 µM) | 12.5 (≈ 35.1 µM) | > 50 | 6.97 (≈ 19.6 µM) | 36.7 (≈ 103 µM) | ~3.88 (≈ 10.9 µM) | 3.13 (≈ 8.8 µM) | 25 (≈ 70.3 µM) | – | – | –
CCOc1ccc(-c2[nH]nc(C(F)(F)F)c2-c2ccc(OC)c(OC)c2)c(O)c1 [May-3, 2-[4-(3,4-dimethoxyphenyl)-5-(trifluoromethyl)-1∼{H}-pyrazol-3-yl]-5-ethoxy-phenol] | – | 12.5 (≈ 30.6 µM) | 25 (≈ 61.2 µM) | 6.69 (≈ 16.4 µM) | – | ~0.8 (≈ 1.96 µM) | 12.5 (≈ 30.6 µM) | > 50 | – | – | –
CCOc1ccc(-c2n[nH]c(C(F)(F)F)c2-c2ccc(OC)cc2)c(O)c1 [May-7, 5-ethoxy-2-[4-(4-methoxyphenyl)-5-(trifluoromethyl)-1∼{H}-pyrazol-3-yl]phenol] | – | 6.25 (≈ 16.5 µM) | 50 (≈ 132 µM) | 5.68 (≈ 15 µM) | 231 (≈ 610 µM) | ~31.1 (≈ 82.3 µM) | 6.25 (≈ 16.5 µM) | > 50 | – | – | –
COc1ccc(-c2n[nH]c(C(F)(F)F)c2-c2ccc(Cl)cc2)c(O)c1 [May-16, 2-[4-(4-chlorophenyl)-5-(trifluoromethyl)-1∼{H}-pyrazol-3-yl]-5-methoxy-phenol] | – | 3.13 (≈ 8.49 µM) | 50 (≈ 136 µM) | 3.59 (≈ 9.74 µM) | – | – | 3.13 (≈ 8.49 µM) | 25 (≈ 67.8 µM) | 1.56 (≈ 4.23 µM) | – | –
COc1ccc(-c2n[nH]c(C(F)(F)F)c2-c2ccccc2OC)c(O)c1 [May-19, 5-methoxy-2-[4-(2-methoxyphenyl)-5-(trifluoromethyl)-1∼{H}-pyrazol-3-yl]phenol] | > 50 | 25 (≈ 68.6 µM) | 50 (≈ 137 µM) | 5.74 (≈ 15.8 µM) | – | 24.1 (≈ 66.1 µM) | 25 (≈ 68.6 µM) | 50 (≈ 137 µM) | – | – | –
COc1ccc(-c2n[nH]c(C(F)(F)F)c2-c2ccccc2)c(O)c1 [May-21, 5-methoxy-2-[4-phenyl-5-(trifluoromethyl)-1∼{H}-pyrazol-3-yl]phenol] | – | 25 (≈ 74.8 µM) | > 50 | 6.47 (≈ 19.4 µM) | 46.9 (≈ 140 µM) | ~15.6 (≈ 46.8 µM) | 12.5 (≈ 37.4 µM) | 50 (≈ 150 µM) | 3.13 (≈ 9.36 µM) | – | –
CCOc1ccc(-c2n[nH]c(C(F)(F)F)c2-c2ccccc2)c(O)c1 [May-22, 5-ethoxy-2-[4-phenyl-5-(trifluoromethyl)-1∼{H}-pyrazol-3-yl]phenol] | > 50 | 6.25 (≈ 17.9 µM) | > 50 | 5.8 (≈ 16.7 µM) | 19.9 (≈ 57.1 µM) | 19.2 (≈ 55 µM) | 3.13 (≈ 8.99 µM) | 50 (≈ 144 µM) | – | – | –
NNC(=O)COc1ccc(-c2[nH]nc(C(F)(F)F)c2-c2ccccc2)c(O)c1 [May-25, 2-[3-hydroxy-4-[4-phenyl-5-(trifluoromethyl)-1∼{H}-pyrazol-3-yl]phenoxy]acetohy drazide] | 25 (≈ 63.7 µM) | – | – | 27.6 (≈ 70.3 µM) | – | 106 (≈ 271 µM) | 12.5 (≈ 31.9 µM) | 50 (≈ 127 µM) | 6.25 (≈ 15.9 µM) | – | –
COc1ccc(-c2c(C(F)(F)F)n[nH]c2-c2ccc(OCc3ccccc3)cc2O)cc1 [May-26, 5-benzoxy-2-[4-(4-methoxyphenyl)-5-(trifluoromethyl)-1∼{H}-pyrazol-3-yl]phenol] | – | 3.13 (≈ 7.11 µM) | 12.5 (≈ 28.4 µM) | – | 4.8 (≈ 10.9 µM) | 9.64 (≈ 21.9 µM) | 1.56 (≈ 3.54 µM) | > 50 | 3.13 (≈ 7.11 µM) | – | –
CCOc1ccc(-c2n[nH]c(C)c2-c2ccc(Cl)cc2)c(O)c1 [Sep-22, 2-[4-(4-chlorophenyl)--5-methyl-1∼{H}-pyrazol-3-yl]-5-ethoxy-phenol] | > 50 | 50 (≈ 152 µM) | > 50 | – | 23.6 (≈ 71.8 µM) | ~1480 (≈ 4510 µM) | 50 (≈ 152 µM) | > 50 | – | – | –
COc1ccc(-c2n[nH]cc2-c2ccc(Cl)cc2)c(O)c1 [Sep-23, 2-[4-(4-chlorophenyl)-1∼{H}-pyrazol-5-yl]-5-methoxy-phenol] | > 50 | > 50 | > 50 | 9.14 (≈ 30.4 µM) | 39.7 (≈ 132 µM) | 259 (≈ 861 µM) | 25 (≈ 83.1 µM) | > 50 | – | – | –
NNC(=O)COc1ccc(-c2n[nH]c(C(F)(F)F)c2-c2ccc(Cl)cc2)c(O)c1 [Sep-24, 2-[4-[4-(4-chlorophenyl)-5-(trifluoromethyl)-1∼{H}-pyrazol-3-yl]-3-hydroxy-phenoxy]acetohydr azide] | 50 (≈ 117 µM) | > 50 | > 50 | – | – | – | 50 (≈ 117 µM) | > 50 | – | 119 (≈ 279 µM) | 104 (≈ 243 µM)
